Entries after “also recorded” stand apart in the source; their conditions may differ. Marks after values point to notes of the source that are not given here.
Legend:
[1] = biological target: T1, rat brain α7* nicotinic acetylcholine receptors (Rattus norvegicus, UniProt Q05941); experiment: [3H]A-585539 radioligand binding, rat brain homogenates
T1 construct: expressed both as a native (rat cortex) or α7/5-HT3 chimeric receptor; from tissue; host or cells: rat brain / rat cortex homogenates

Chimera 2 [2] = biological target: T2, Chimera 2 (Homo sapiens, UniProt P36544, M226I/T225V); experiment: Whole cell patch clamp in HEK-293 cells; format: cell-based; parameters: expressed in transfected cells
Chimera 1 [3] = biological target: T3, Chimera 1 (Homo sapiens, UniProt P36544, M226I/T225V); experiment: Two electrode voltage clamp in Xenopus oocytes (POETs), agonist and modulator responses; format: cell-based; parameters: expressed in transfected cells; host or cells: Xenopus laevis oocytes (transient, A1)
Chimera 2 [4] = biological target: T2, Chimera 2; experiment: [3H]A-585539 radioligand binding, HEK-293 membranes/homogenates; parameters: expressed in transfected cells
[5] = biological target: T4, wild-type α7 nicotinic acetylcholine receptor (Homo sapiens, UniProt P36544); experiment: Two electrode voltage clamp in Xenopus oocytes, agonist and modulator responses; format: cell-based
T4 construct: expressed in transfected cells; host or cells: Xenopus laevis oocytes

Chimera 2 [6] = biological target: T2, Chimera 2; experiment: Two electrode voltage clamp in Xenopus oocytes (POETs), agonist and modulator responses; format: cell-based; parameters: expressed in transfected cells; host or cells: Xenopus laevis oocytes (transient, A2)
Chimera 2 [7] = biological target: T2, Chimera 2; experiment: Membrane potential imaging (FLIPR-FMP) in HEK-293 cells; format: cell-based; parameters: expressed in transfected cells; details: for Modulation of submaximum agonist-evoked membrane potential response (words): HEK-293 cells, FMP
Chimera 1 [8] = biological target: T3, Chimera 1; experiment: as above; format: cell-based; parameters: expressed in transfected cells; details: for Modulation of submaximum agonist-evoked membrane potential response (words): HEK-293 cells, FMP
[9] = biological target: T5, wild-type human 5-HT3A receptors (Homo sapiens, UniProt P46098); experiment: Two electrode voltage clamp in Xenopus oocytes, agonist and modulator responses; format: cell-based
T5 construct: expressed in transfected cells; host or cells: Xenopus laevis oocytes
T5 sequence (P46098 1-484 isoform P46098-4): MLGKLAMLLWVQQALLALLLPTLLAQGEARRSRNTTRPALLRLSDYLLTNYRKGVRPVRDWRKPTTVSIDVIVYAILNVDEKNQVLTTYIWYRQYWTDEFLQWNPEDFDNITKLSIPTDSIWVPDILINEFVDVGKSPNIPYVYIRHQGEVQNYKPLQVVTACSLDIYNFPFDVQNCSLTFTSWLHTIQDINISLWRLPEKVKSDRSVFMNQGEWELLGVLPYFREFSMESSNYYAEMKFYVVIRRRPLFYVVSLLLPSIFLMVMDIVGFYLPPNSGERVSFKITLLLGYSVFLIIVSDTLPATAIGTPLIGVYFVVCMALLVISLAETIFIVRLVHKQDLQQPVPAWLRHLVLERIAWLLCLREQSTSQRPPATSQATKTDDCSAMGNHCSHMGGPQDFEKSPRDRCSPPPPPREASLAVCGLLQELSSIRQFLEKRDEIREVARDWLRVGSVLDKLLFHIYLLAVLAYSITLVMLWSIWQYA

T3 sequence (P36544 with tags, fused parts or gaps T225V/M226I): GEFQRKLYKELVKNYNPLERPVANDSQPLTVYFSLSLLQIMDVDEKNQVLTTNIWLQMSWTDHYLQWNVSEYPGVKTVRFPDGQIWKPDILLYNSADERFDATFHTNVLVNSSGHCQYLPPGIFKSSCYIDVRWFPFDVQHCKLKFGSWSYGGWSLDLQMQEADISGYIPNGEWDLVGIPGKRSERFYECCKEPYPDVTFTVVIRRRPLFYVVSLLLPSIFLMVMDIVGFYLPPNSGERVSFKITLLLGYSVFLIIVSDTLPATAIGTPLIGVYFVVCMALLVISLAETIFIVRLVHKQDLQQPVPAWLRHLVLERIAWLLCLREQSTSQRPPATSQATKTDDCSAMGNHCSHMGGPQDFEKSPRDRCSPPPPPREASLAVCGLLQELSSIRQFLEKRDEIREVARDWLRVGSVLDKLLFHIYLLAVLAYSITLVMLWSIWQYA
T1 sequence (Q05941 23-502): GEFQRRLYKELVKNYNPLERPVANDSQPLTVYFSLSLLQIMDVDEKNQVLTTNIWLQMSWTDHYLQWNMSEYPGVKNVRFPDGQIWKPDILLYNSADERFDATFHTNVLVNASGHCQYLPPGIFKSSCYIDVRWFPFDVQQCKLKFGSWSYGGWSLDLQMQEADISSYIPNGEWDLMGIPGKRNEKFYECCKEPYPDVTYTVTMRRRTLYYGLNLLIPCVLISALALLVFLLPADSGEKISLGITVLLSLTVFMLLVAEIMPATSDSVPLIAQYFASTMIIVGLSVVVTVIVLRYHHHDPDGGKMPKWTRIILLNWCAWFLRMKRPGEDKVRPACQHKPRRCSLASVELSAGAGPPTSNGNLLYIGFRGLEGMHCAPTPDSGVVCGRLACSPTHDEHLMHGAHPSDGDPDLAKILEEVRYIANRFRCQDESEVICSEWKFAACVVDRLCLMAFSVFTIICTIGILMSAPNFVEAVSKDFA
T2 sequence (P36544 with tags, fused parts or gaps T225V/M226I): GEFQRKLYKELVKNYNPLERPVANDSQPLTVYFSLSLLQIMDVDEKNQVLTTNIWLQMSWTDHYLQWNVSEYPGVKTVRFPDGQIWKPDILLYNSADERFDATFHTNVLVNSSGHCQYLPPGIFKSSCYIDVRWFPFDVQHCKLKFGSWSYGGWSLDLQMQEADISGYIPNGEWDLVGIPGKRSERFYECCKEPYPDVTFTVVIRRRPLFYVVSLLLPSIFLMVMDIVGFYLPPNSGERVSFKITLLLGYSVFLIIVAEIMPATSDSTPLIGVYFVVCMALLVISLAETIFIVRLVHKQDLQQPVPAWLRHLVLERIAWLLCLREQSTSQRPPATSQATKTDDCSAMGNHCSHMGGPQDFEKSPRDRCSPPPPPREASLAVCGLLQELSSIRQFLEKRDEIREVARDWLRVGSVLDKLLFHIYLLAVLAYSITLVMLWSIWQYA
T4 sequence (P36544 23-502): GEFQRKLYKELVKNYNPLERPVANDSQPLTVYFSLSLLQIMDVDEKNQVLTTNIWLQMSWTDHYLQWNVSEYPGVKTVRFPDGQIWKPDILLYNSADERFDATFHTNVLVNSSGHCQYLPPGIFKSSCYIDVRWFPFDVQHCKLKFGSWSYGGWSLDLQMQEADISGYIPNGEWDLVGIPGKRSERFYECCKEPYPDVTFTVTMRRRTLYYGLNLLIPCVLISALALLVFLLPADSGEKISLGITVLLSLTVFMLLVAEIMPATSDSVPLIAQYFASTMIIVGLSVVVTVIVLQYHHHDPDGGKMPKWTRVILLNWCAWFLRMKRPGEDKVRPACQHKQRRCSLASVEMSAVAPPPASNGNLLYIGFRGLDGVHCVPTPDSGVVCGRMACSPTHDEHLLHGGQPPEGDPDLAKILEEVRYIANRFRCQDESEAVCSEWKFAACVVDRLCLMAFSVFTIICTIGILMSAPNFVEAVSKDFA

## O=c1c(-c2ccc(O)cc2)coc2cc(O)cc(O)c12 [Genistein, genistein]
[1]; 10 μM
  Effect on [3H]A-585539 saturation binding: did not alter the saturation profile; also recorded: did not alter the saturation binding
[1]; rat cortex, increasing concentrations
  Competition / displacement of [3H]A-585539 binding: neither compound effectively displaced the binding
Chimera 2 [2]; 100 μM
  Directly evoked peak response normalized to 100 μM ACh: 72.6±22.2%
  Directly evoked total charge (integral) normalized to 100 μM ACh: 162.5±5.3%
Chimera 2 [2]; genistein 100 μM, 5-HI 10 mM
  Direct current activation by modulator alone: directly activated the Chimera 2 receptor current
Chimera 2 [2]; genistein 30-50 μM, 5-HI 1 mM
  Positive allosteric modulation of ACh-evoked current: effective as positive allosteric modulators
Chimera 1 [3]; 100 μM ACh
  Percentage potentiation of submaximum agonist-evoked responses (mean±S.E.M.): 65±27%
Chimera 1 [3]; Xenopus oocytes
  Direct current activation by modulator alone: did not activate currents
Chimera 1 [3]; read-out: Observed % inhibitory effect on submaximum ACh-evoked response
  inhibition at 100 µM: ~35%
Chimera 2 [4]; 10 μM
  Effect on [3H]A-585539 saturation binding: did not alter the saturation profile; also recorded: did not alter the saturation binding
Chimera 2 [4]; increasing concentrations
  Competition / displacement of [3H]A-585539 binding: neither compound effectively displaced the binding
[5]; 100 μM ACh
  Percentage potentiation of submaximum agonist-evoked responses (mean±S.E.M.): 246±17%
[5]; Positive allosteric modulation potency, two electrode voltage clamp: EC50 (95% C.I.), submaximum ACh (100 μM)-evoked response
  EC50: 10.6 µM
[5]; Xenopus oocytes
  Direct current activation by modulator alone: did not activate currents
  Effect of modulator on ACh-evoked current (words): primarily increasing the current amplitude
  Fold increase of submaximum ACh-evoked currents: 2-3 fold
Chimera 2 [6]; 10-30 μM ACh
  Percentage potentiation of submaximum agonist-evoked responses (mean±S.E.M.): 234±19%
Chimera 2 [6]; Xenopus oocytes
  Direct current activation by modulator alone: activated currents at 30 and 100 μM; also recorded: evoked unique agonist-like current
  Effect of modulator on ACh-evoked current (words): potentiated peak amplitude of ACh current responses
  Fold increase of submaximum ACh-evoked currents: 2-3 fold
Chimera 2 [6]; Xenopus oocytes, listed as genestein
  Effect of modulator on ACh-evoked current (words): potentiated ACh responses in Chimera 2
Chimera 2 [6]; read-out: Positive allosteric modulation potency, two electrode voltage clamp: EC50 (95% C.I.)
  EC50: 5.2 µM
Chimera 2 [7]
  Modulation of submaximum agonist-evoked membrane potential response (words): enhanced agonist-evoked depolarization
Chimera 2 [7]; listed as genestein
  Modulation of submaximum agonist-evoked membrane potential response (words): very effective
Chimera 2 [7]; listed as genistein
  Modulation of submaximum agonist-evoked membrane potential response (words): potentiated submaximum NS6784 evoked responses; also recorded: potentiated Chimera 2 receptors
Chimera 2 [7]; read-out: FMP imaging: positive allosteric modulation EC50 (95% C.I.), submaximum NS6784 (60-70 nM)
  EC50: 4.3 µM
Chimera 2 [7]; submaximum NS6784 60-70 nM
  Maximum positive allosteric modulation efficacy: 221±30%
Chimera 1 [8]
  Modulation of submaximum agonist-evoked membrane potential response (words): unable to do so
Chimera 1 [8]; listed as genistein
  Modulation of submaximum agonist-evoked membrane potential response (words): not effective as positive allosteric modulator; also recorded: inhibited Chimera 1
Chimera 1 [8]; read-out: FMP imaging: IC50 (95% C.I.), inhibition of agonist-evoked response, submaximum NS6784
  IC50: 23.3 µM
Chimera 1 [8]; submaximum NS6784 120-200 nM
  Maximum positive allosteric modulation efficacy: 14±3%
[9]; 1-3 μM 5-HT
  Percentage potentiation of submaximum agonist-evoked responses (mean±S.E.M.): 52±7%
[9]; Xenopus oocytes
  Direct current activation by modulator alone: did not activate currents
  Effect of modulator on agonist (5-HT)-evoked current: Neither compound increased the responses
[9]; at 30 μM
  Observed % inhibitory effect on submaximum 5-HT-evoked response: ~48%^a at 30
[9]; at 30 μM, read-out: Observed % inhibitory effect on submaximum 5-HT-evoked response
  inhibition at 30 µM: ~50%
